Active and inactive are the calls of the source.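 Rule for the calls: active = caspase luminescence falls with dose and the half-maximal concentration AC50 from the fitted curve is at or below a set limit; inconclusive = flat fit at 30 to 70% signal loss, or invalid fit; inactive = AC50 above the limit, or signal rises instead.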

This assay concerns INS-1E cytokine-induced caspase-3/7, Caspase-Glo luminescence, 48 h. The experiment in a line: suppression of cytokine-driven beta-cell apoptosis – INS-1E rat cells, luminescence, orthogonal assay for beta-cell apoptosis protection project, dose response (AID 463206).
On to `CCc1ccc(S(=O)(=O)/N=C2\C=C(Nc3ccc(C(=O)O)cc3)C(=O)c3ccccc32)cc1`, for which the AC50 – broadly, the midpoint of the concentration-response curve, whichever way the signal moves – was > 26 µM (inactive). For the compound `CCc1ccc(-n2c(C)cc(/C=N/NC(=O)c3ccncc3)c2C)cc1`, the AC50 is > 26 µM (inactive).

Regarding `C=C1C(O)[C@@H]2O[C@]3(CC[C@H](/C=C/C(C)[C@@H]4CC(C)=CC5(O[C@H](C[C@@](C)(O)C(=O)O)CCC5O)O4)O3)CC[C@H]2O[C@@H]1C(O)CC(C)[C@H]1OC2(CCCCO2)CCC1C` (stereo not given in full), the AC50 is > 26 µM (inactive).

Regarding `Nc1nonc1-n1nnc(C(=O)N/N=C/c2cc(Br)ccc2O)c1CSC1=NCCS1`, the AC50 is > 26 µM (inactive). With `CCN(CC)S(=O)(=O)c1cc(C)ccc1NC(=S)Nc1cccnc1`, the AC50 is > 26 µM (inactive).

With `N/C(=N\OC(=O)c1cccc(Cn2cc(C(F)(F)F)ccc2=O)c1)c1ccc(Cl)cc1`, the AC50 was > 26 µM (inactive). As to `O=[N+]([O-])c1ccc(O)c(/C=N/NC(=S)Nc2ccc(Cl)cc2Cl)c1`, the AC50 was > 26 µM (inactive). Take `COCCn1c(SCC(=O)/C=C2\N(C)c3ccccc3C2(C)C)nnc1-c1ccncc1`: the AC50 was > 26 µM (inactive). In the case of `CCCOc1ccc(/C=N/Nc2cc(N3CCOCC3)ncn2)c(O)c1` it was > 26 µM (inactive); in that of `O=C(COc1ccccc1-c1ccccc1)N/N=C/c1ccc2ccccc2c1`, > 12 µM (inactive); in that of `c1ccc(CCNc2nc(-c3ccccn3)nc3ccccc23)cc1`, > 26 µM (inactive). `O=[N+]([O-])c1cccc(-c2cn3nc(-c4ccccc4)c(-c4ccccc4)nc3n2)c1`: the AC50 was > 26 µM (inactive).

Consider `OC(COC(c1ccc(F)cc1)c1ccc(F)cc1)CN1CCc2ccccc2C1` (stereo not given), for which the AC50 was > 26 µM (inactive). Consider `COc1cnc(-c2ccccn2)nc1NC(C)C`, for which the AC50 was > 12 µM (inactive). With `O=C(/C=C/c1ccccc1)NC(=S)NNC(=O)c1cnccn1`, the AC50 is > 26 µM (inactive). On to `COc1ccc(C2/C=C\CN(C(=O)c3ccc(C)cc3)[C@H](Cc3ccccc3)C(=O)N2Cc2ccc(F)cc2)cc1` (stereo not given in full), for which the AC50 is > 26 µM (inactive). Regarding `N#CC(C#N)=C(Nc1ccc(F)cc1)SCc1cccc(F)c1`, the AC50 was > 26 µM (inactive).

Turning to `Cc1oc2c(c1C(=O)N1CCC(C)CC1)C(=O)c1ccccc1C2=O`, the AC50 is > 26 µM (inactive).

For `CCC(=O)NC(c1cc(Cl)c2cccnc2c1O)C(C)C` (stereo not given), the AC50 was > 26 µM (inactive). As for `CC(C)(C)n1ncc2c(=O)n(Cc3cccc(Cn4cnc5c(cnn5C(C)(C)C)c4=O)c3F)cnc21`, the AC50 is > 26 µM (inactive). In the case of `O=C(N/N=C/c1sc2ccccc2c1O)c1ccccc1` it was > 26 µM (inactive).

Turning to `COc1ccc(C(=O)N/N=C(\c2ccccc2)c2ccccn2)cc1`, the AC50 is > 26 µM (inactive). Take `CCCCCc1ccc(-c2cn(CN3C(=O)c4ccccc4C3=O)nn2)cc1`: the AC50 was > 26 µM (inactive). Consider `Cc1nnc(N/N=C/c2cc([N+](=O)[O-])c(N3CCC(C)CC3)cc2N2CCC(C)CC2)n1N`, for which the AC50 is > 26 µM (inactive). For the compound `CCOc1cc(/C=N/NC(=O)c2cc(-c3cccc(OC)c3)nc3ccccc23)ccc1O`, the AC50 was > 26 µM (inactive). For `CCN(CC)c1ccc(/C=N/N(c2ccccc2)c2ccccc2)c(O)c1`, the AC50 is > 26 µM (inactive). With `CC#CC[N+](C)(C)CCCCCCCCCCCC` the figure was > 26 µM (inactive); with `CCCc1sc(N/N=C/c2ccccn2)nc1-c1ccc(F)cc1`, > 26 µM (inactive). In the case of `CCCOc1ccc(Cc2c(Cl)nc(SC)nc2NC)cc1` it was > 26 µM (inactive); in that of `COc1cccc(/C=N/NC(=O)c2ccoc2C)c1O`, > 26 µM (inactive). On to `CC(=O)Oc1ccc(N(C(C)=O)S(=O)(=O)c2cccs2)c2ccccc12`, for which the AC50 is > 26 µM (inactive). Turning to `Cc1cc(F)ccc1S(=O)(=O)Nc1ccccc1C(=O)Nc1ccccc1-c1nc2ccccc2[nH]1`, the AC50 was > 26 µM (inactive).

`N#Cc1c(Cl)nsc1NC(=O)c1ccccc1`: the AC50 is > 26 µM (inactive). Consider `Cn1nnnc1N=N/C(=N/Nc1ccccc1)c1ccccc1`, for which the AC50 was > 12 µM (inactive). `COc1cccc(C(=O)Oc2c(CN3CCOCC3)cc(Cl)c3cccnc23)c1`: the AC50 is > 26 µM (inactive). For `COc1ccc(Cl)c(Cn2c(NCc3ccco3)nc3c2c(=O)n(C)c(=O)n3C)c1`, the AC50 was > 26 µM (inactive). With `O=C(c1cc(COc2cccc3cnccc23)on1)N1CCCC(CCCO)C1` (stereo not given) the figure was > 26 µM (inactive). With `O=C1C=C(c2cccs2)C[C@H](c2ccccc2)[C@H]1n1nnc([N+](=O)[O-])n1`, the AC50 is > 26 µM (inactive).

Consider `O=[N+]([O-])c1cccc2c(N3CCCC3)ccnc12`, for which the AC50 is > 26 µM (inactive). For `Cc1ccc2nc(/C(C#N)=C\c3ccc([N+](=O)[O-])o3)[nH]c2c1`, the AC50 was > 26 µM (inactive).

As to `CC(C)(C)c1ccc(/C=C(\c2nc3ccccc3[nH]2)S(=O)(=O)c2ccccc2)cc1`, the AC50 was > 26 µM (inactive). In the case of `Cc1ccc(Cn2c(=N)n(CC(=O)c3ccccc3)c3ccccc32)cc1`, the AC50 was > 26 µM (inactive). Regarding `COc1ccc(O)c(/C=N/NC(=O)c2ccc(CSc3nc(C)cc(C)n3)cc2)c1`, the AC50 was > 26 µM (inactive). Regarding `Oc1ccc(CCNc2ncnc3ccc(Cl)cc23)cc1`, the AC50 was > 26 µM (inactive). Regarding `Cc1cc(C(=O)N/N=C/c2cc(Br)cc(Br)c2OC(=O)c2cccc(F)c2)n[nH]1`, the AC50 is > 26 µM (inactive). For `CC(C)Oc1ccc(C(CCN)C2CCCCC2)cc1` (stereo not given), the AC50 was > 26 µM (inactive). Consider `O=C(C(Cl)Cl)N1c2ccccc2OCC1c1ccccc1` (stereo not given), for which the AC50 was > 26 µM (inactive). In the case of `O=C(Nc1cc(-c2ccccc2)nn1C1CCCCC1)c1ccc(Cl)cc1` it was > 26 µM (inactive).

Consider `CCN1CCN(c2ccc(S(=O)(=O)N3CCCCC3)cc2NC(=O)c2ccc([N+](=O)[O-])o2)CC1`, for which the AC50 is > 26 µM (inactive). `C=CCCc1ccc(C#N)c(SCc2c(C(=O)OCC)c3cc(OC(C)=O)c(Br)cc3n2C)n1`: the AC50 is > 26 µM (inactive). With `COc1ccc(S(=O)(=O)Nc2cc(SCC(=O)O)c(O)c3ccccc23)cc1` the figure was > 26 µM (inactive); with `O=S(=O)(Nc1cc(Sc2cccc3cccnc23)c(O)c2ccccc12)c1ccc(F)cc1`, > 26 µM (inactive); with `COc1cc(NC(C)CCCN)c2ncccc2c1` (stereo not given), > 26 µM (inactive). For `Cc1ccc(C)c(N=Nc2ccc(O)c3ncccc23)c1`, the AC50 was > 26 µM (inactive). In the case of `Cc1cc(C(=O)CSc2nc3ccccc3c(=O)n2C)c(C)n1Cc1ccc2c(c1)OCO2` it was > 26 µM (inactive).

For the compound `CCOC(=O)C1CCN(C(=O)c2c(C)oc3c2C(=O)c2ccccc2C3=O)CC1`, the AC50 is > 26 µM (inactive).

With `FC(F)(F)c1cnc(NNC(=S)Nc2ccccc2Cl)c(Cl)c1`, the AC50 is > 26 µM (inactive). `CCOC(=O)c1sc(SC)c2c1CCC/C2=N/OC`: the AC50 is > 26 µM (inactive). With `CCCC(C)C(=O)Nc1nc(C)c(-c2csc(Nc3ccc(Cl)cc3)n2)s1` (stereo not given), the AC50 was > 26 µM (inactive). For the compound `CCOc1cc(S(=O)(=O)NCc2ccncc2)ccc1Cl`, the AC50 is > 26 µM (inactive). In the case of `c1ccc(Nc2nc(NCc3ccco3)c3ccccc3n2)cc1` it was 23.7 µM; in that of `O=C1/C(=C/c2ccc(N3CCOCC3)o2)SC(=Nc2ccccc2)N1CCc1c[nH]c2ccccc12`, > 26 µM (inactive); in that of `O=C(N/N=C/c1cc([N+](=O)[O-])ccc1O)c1cccc2ccccc12`, > 26 µM (inactive). In the case of `COc1ccc(Nc2nc(N3CCCC3)c3ccccc3n2)cc1` it was 17.1 µM; in that of `Cc1ccc(-n2c(Cl)c(Cl)nc(Cl)c2=O)cc1`, > 26 µM (inactive); in that of `O=C(Nc1cccnc1)c1cccnc1`, > 26 µM (inactive). With `Nc1nc(Cl)cc(N2CCC(c3cc(-c4ccc(Cl)cc4)n[nH]3)CC2)n1` the figure was > 26 µM (inactive); with `Cc1ccc2ccc3cccnc3c2n1`, > 26 µM (inactive). As for `Oc1ccc(-c2n[nH]c(C(F)(F)F)c2-c2ccccc2)c(O)c1`, the AC50 is > 26 µM (inactive). Regarding `CC(=O)CSc1ccc(-c2nc3ccccc3[nH]2)cn1`, the AC50 was > 26 µM (inactive). With `NNc1nc(-c2ccccc2)cc(-c2ccccc2O)n1` the figure was > 26 µM (inactive); with `Clc1ccc(C(Cn2ccnc2)OCc2csc3c(Cl)cccc23)c(Cl)c1` (stereo not given), > 26 µM (inactive). In the case of `Cc1nc2ccccc2n1/N=C/c1ccc([N+](=O)[O-])s1` it was > 26 µM (inactive); in that of `CN(C)c1cc[n+](CC(=O)Nc2ccc(Oc3ccccc3)cc2)cc1`, > 26 µM (inactive); in that of `COc1cc(N/N=C/c2ccccc2O)ncn1`, > 26 µM (inactive). As to `CCCCC(=O)NC(c1ccc(N(C)C)cc1)c1ccc2cccnc2c1O` (stereo not given), the AC50 is > 26 µM (inactive). Turning to `Cc1ccc(S(=O)(=O)Nc2ccc(C(OC(=O)c3ccccc3[N+](=O)[O-])(C(F)(F)F)C(F)(F)F)cc2)cc1`, the AC50 is > 26 µM (inactive). Take `Cc1cccnc1Nc1nc(-c2ccccn2)cs1`: the AC50 was > 26 µM (inactive). Regarding `O=C(NCc1cccnc1)C(=O)Nc1nc(C23CC4CC(CC(C4)C2)C3)cs1`, the AC50 is > 26 µM (inactive). Take `O=C(Nc1ccc(N2CCN(Cc3ccccc3Cl)CC2)cc1)c1cccnc1`: the AC50 was > 26 µM (inactive). `Nc1nc(N)c2cc(Sc3ccc4ccccc4c3)ccc2n1`: the AC50 is > 26 µM (inactive). For the compound `Cc1cc(/C=N/n2cnnc2)c(C)n1-c1ccc(OCc2ccccc2F)cc1`, the AC50 was > 26 µM (inactive). In the case of `Cc1ccc(S(=O)(=O)c2ccc([N+](=O)[O-])cn2)cc1`, the AC50 was > 26 µM (inactive).

Turning to `COc1ccc(C(=O)N/N=C(\C)c2ccccn2)cc1OC`, the AC50 is > 26 µM (inactive). With `O=C(Oc1c(CN2CCOCC2)cc(Cl)c2cccnc12)c1ccc(F)cc1` the figure was > 26 µM (inactive).

Source of the values: PubChem BioAssay AID463206 (Broad Institute, 2010).
